Where two headings read alike, the source gives them in different places.
Key:
human A1AR [1] = molecular target: T1, human A1AR (Homo sapiens, UniProt P30542); conditions: [3H]-CCPA displacement, human A1AR in CHO cells; geometric mean with 95% confidence limits; read-out: Ki A1; cited from earlier work
T1 construct: expressed in transfected cells; host or cells: CHO cells, crude membrane fractions
T1 sequence (P30542 1-326): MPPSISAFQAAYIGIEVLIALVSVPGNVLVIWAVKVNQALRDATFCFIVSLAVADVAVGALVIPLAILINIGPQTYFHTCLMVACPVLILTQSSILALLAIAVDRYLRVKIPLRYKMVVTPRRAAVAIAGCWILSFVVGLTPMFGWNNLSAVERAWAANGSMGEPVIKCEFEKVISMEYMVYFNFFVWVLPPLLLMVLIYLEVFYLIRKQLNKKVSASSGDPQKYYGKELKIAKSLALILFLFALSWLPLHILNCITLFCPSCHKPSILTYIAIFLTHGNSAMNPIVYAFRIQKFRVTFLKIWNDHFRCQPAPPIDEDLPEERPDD

human A2AAR [2] = molecular target: T2, human A2AAR (Homo sapiens, UniProt P29274); conditions: [3H]-NECA displacement, human A2AAR in CHO cells; geometric mean with 95% confidence limits; read-out: Ki A2A; cited from earlier work
T2 construct: expressed in transfected cells; host or cells: CHO cells, crude membrane fractions

human A3AR [3] = molecular target: T3, human A3AR (Homo sapiens, UniProt P0DMS8); conditions: [3H]-NECA displacement, human A3AR in CHO cells; geometric mean with 95% confidence limits; read-out: Ki A3; cited from earlier work
T3 construct: expressed in transfected cells; host or cells: CHO cells, crude membrane fractions
T3 sequence (P0DMS8 1-318): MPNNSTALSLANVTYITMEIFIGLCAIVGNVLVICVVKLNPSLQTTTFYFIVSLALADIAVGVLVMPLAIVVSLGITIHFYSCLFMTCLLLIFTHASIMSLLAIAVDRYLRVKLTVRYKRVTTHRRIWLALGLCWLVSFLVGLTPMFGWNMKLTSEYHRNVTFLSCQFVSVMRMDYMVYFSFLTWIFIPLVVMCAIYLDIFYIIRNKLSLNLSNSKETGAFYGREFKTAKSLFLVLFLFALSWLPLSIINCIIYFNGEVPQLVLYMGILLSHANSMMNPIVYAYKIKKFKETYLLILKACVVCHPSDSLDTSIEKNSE

human A2BAR [4] = molecular target: T4, human A2BAR (Homo sapiens, UniProt P29275); conditions: inhibition of NECA-stimulated AC activity, CHO cells expressing human A2BAR; geometric mean with 95% confidence limits; read-out: IC50 A2B; cited from earlier work
T4 construct: expressed in transfected cells; host or cells: CHO cells, crude membrane fractions
T4 sequence (P29275 1-332): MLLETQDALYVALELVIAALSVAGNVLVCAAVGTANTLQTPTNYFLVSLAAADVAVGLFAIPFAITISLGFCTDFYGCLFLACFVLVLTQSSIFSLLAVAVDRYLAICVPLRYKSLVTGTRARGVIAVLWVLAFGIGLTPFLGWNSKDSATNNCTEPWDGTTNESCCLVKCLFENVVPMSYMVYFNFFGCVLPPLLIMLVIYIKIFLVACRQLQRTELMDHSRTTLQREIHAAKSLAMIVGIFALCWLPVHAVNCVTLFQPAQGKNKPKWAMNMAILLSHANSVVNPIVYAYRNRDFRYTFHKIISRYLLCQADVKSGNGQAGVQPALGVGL

human A2AAR [5] = molecular target: T2, human A2AAR; assay: Radioligand binding, displacement of [3H]NECA at human A2AAR in CHO cells; conditions: for Selectivity A1/A2A / Selectivity A3/A2A: ratio of Ki values at human ARs; for Ki: [3H]-NECA displacement, human A2AAR in CHO cells, geometric mean with 95% confidence limits, read-out: Ki A2A
Method: (§1) The radioligand binding experiments were carried out exactly as described previously. For A1AR binding, 1 nM [^3H]CCPA was used as a radioligand, whereas 30 and 10 nM [^3H]NECA were used for A2A and A3 ARs, respectively. Nonspecific binding was determined in the presence of 1 mM theophylline (A1AR) or […] R-PIA (A2A and A3 ARs). Ki values were calculated from competition curves by nonlinear curve fitting with the program SCTFIT [31].
(§2) CHO cells stably transfected with human ARs were grown adherently and maintained in Dulbecco’s Modified Eagles Medium with nutrient mixture F12 (DMEM/F12) without nucleosides, containing 10% fetal calf serum, penicillin (100 U/mL), streptomycin (100 μg/mL), L-glutamine (2 mM), and Geneticin (G-418, 0.2 mg/mL) at 37 °C in 5% CO2/95% air, as described earlier. For radioligand binding studies and measurement of adenylyl cyclase activity, crude membrane fractions were prepared from fresh or frozen cells with two different protocols described earlier. The determination of adenylyl cyclase activity followed the procedure described earlier. IC50 values for the inhibition of adenylyl cyclase stimulated (in the case of A2BAR) with 5 μM NECA were calculated with the Hill equation and converted to Ki values with the Cheng and Prusoff equation [32].
(§3) [^3H]CCPA (2-chloro-N^6-cyclopentylAdo) and [^3H]NECA (5′-N-ethylcarboxamidoAdo) were used as specific radioligands at A1ARand A2A / A3 ARs, respectively. Furthermore, the ability of the same compounds to inhibit NECA-stimulated adenylyl cyclase activity was evaluated at the A2BAR subtype. The results of the binding studies (A1, A2A, and A3 ARs) and functional data (A2BAR) are reported in Table 1 as Ki or IC50 values in nM, together with the data on the reference compounds 1–3.

human A3AR [6] = molecular target: T3, human A3AR; assay: Radioligand binding, displacement of [3H]NECA at human A3AR in CHO cells; conditions: [3H]-NECA displacement, geometric mean with 95% confidence limits, read-out: Ki A3
Method: as §1, §2, §3

[7] = test system: tacrine-induced tremulous jaw movements; assay: Tacrine-induced tremulous jaw movements; assay type: in vivo, rat; conditions: rats, 5 mg/kg i.p. pretreatment, tacrine 2.5 mg/kg i.p.; 60 min, versus vehicle
Method: Rats were divided into two groups and treated with vehicle or 4 (5 mg/kg. i.p.). Tacrine (2.5 mg/kg i.p.) was administered 20 min after vehicle or 4, and the number of TJMs and bursts of TJMs (i.e., episodes of consecutive TJMs) were measured for 60 min. TJMs were defined as vertical deflections of the lower jaw not directed at a particular stimulus. Yawns, tongue protrusions, and stereotypies, such as grooming, were not scored. In the tacrine-induced TJM tests, the mean and S.E.M of the number of TJMs and bursts were calculated. Significant differences between groups were evaluated by Student’s t-test.

human A1AR [8] = molecular target: T1, human A1AR; assay: Radioligand binding, displacement of [3H]CCPA at human A1AR in CHO cells; conditions: [3H]-CCPA displacement, geometric mean with 95% confidence limits, read-out: Ki A1
Method: as §1, §2, §3

human A2BAR [9] = molecular target: T4, human A2BAR; assay: Inhibition of NECA-stimulated adenylyl cyclase activity at human A2BAR; assay type: biochemical; conditions: inhibition of NECA-stimulated AC activity, CHO cells expressing human A2BAR; geometric mean with 95% confidence limits; read-out: IC50 A2B
Method: as §2, §3

T2 sequence (P29274 whole entry): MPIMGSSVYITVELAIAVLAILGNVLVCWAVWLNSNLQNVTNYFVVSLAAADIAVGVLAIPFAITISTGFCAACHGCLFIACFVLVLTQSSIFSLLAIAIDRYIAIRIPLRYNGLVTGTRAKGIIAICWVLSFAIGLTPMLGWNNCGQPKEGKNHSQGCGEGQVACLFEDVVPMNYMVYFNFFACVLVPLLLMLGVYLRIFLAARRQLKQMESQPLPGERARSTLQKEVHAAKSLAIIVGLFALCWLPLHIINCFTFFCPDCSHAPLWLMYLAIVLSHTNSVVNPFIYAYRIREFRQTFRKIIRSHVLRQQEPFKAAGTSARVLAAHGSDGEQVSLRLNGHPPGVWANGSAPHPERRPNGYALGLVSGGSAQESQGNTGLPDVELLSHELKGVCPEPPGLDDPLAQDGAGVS

Row | Selectivity A1/A2A (human A2AAR [5]) | Selectivity A3/A2A (human A2AAR [5]) | Ki (human A3AR [6]) [nM] | Ki (human A1AR [8]) [nM] | Ki (human A2AAR [5]) [nM] | IC50 (human A2BAR [9]) [nM] | Compound | Ki (human A1AR [1]) [nM] | Ki (human A2AAR [2]) [nM] | Ki (human A3AR [3]) [nM] | IC50 (human A2BAR [4]) [nM] | Number of tremor bursts induced by tacrine [7] | Number of tremulous jaw movements induced by tacrine [7]
1 | 23 | 97 | 359 | 86 | 3.7 | 6510 | CCOc1nc2c(N)nc(OCCc3ccccc3)nc2n1CC [Compound 4, 8-ethoxy-9-ethyl-2-phenethoxyadenine] |  |  |  |  | but not tremor bursts | significantly reduced
2 | 21 | 408 | 489 | 25 | 1.2 | 719 | CCn1c(I)nc2c(N)nc(OCCc3ccccc3)nc21 [Compound 5, 9-ethyl-8-iodo-2-phenethoxy-9H-purin-6-amine] |  |  |  |  |  | 

Row | Compound | Selectivity A1/A2A (human A2AAR [5]) | Selectivity A3/A2A (human A2AAR [5]) | Ki (human A3AR [6]) [nM] | Ki (human A1AR [8]) [nM] | Ki (human A2AAR [5]) [nM] | IC50 (human A2BAR [9]) [nM] | Ki (human A1AR [1]) [nM] | Ki (human A2AAR [2]) [nM] | Ki (human A3AR [3]) [nM] | IC50 (human A2BAR [4]) [nM] | Number of tremor bursts induced by tacrine [7] | Number of tremulous jaw movements induced by tacrine [7]
3 | CCn1c(Br)nc2c(N)nc(OCCc3ccccc3)nc21 [Compound 1, 8-bromo-9-ethyl-2-phenetoxyadenine] | 14 | 641 |  |  |  |  | 23 | 1.7 | 1090 | 569 |  | 
